Assay results taken from patent US11229590B2, “Sunscreen formulation” (priority 2018, dated 2022).

How the values were obtained:
[1] = 4-Methoxy-benzylamine formulation mice skin penetration test (plasma level by HPLC); type: in vivo; conditions: topical on mouse back
Method: Mice Test Procedures: • 1. […] The 12 mice were randomly divided into two groups. […] Add methanol and acetonitrile 200 μL, respectively. […] Precisely transfer the supernatant solution to another test tube. At 40° C. blow N2 through to dryness. […] Supernatant solution was used directly for HPLC analysis. • 4.

[2] = formulation containing 10%, daily 2 mg/cm^2 for a week, cited from earlier work
[3] = maternal urine, gestational weeks 6-30; cited from earlier work
[4] = 2517 urine samples, 2003-2004; cited from earlier work
[5] = Californian females, 2007-2009; cited from earlier work
[6] = couples, samples 2005-2009; cited from earlier work
[7] = Urine samples collected 2007-2009 from Californian females; type: in vivo, human; conditions: from 22.9 ng/mL to 200 ng/mL
Method: Since the first day of sunscreen usage in 1930s, the exposure to sunscreen agents has begun. Initially, the scope and frequency of the sunscreen usage among the human population were very limited. Therefore, the levels of UV filters found in human samples were usually low. However, for the last 20 years, the situation changed dramatically. In one epidemiological study conducted in 2003-2004, 2517 urine samples from United States general population were analyzed for the presence of oxybenzone (benzophenone-3, bp-3), as part of the 2003-2004 National Health and Nutrition Examination Survey [A. M. Calafat, L. Y. Wong, X. YE, J. A. Reidy, L. L. Needham, Concentrations of the sunscreen agent benzophenone-3 in residents of the United States: National Health and nutrition Examination Survey 2003-2004, Environ. Health Perspect, 116 (2008) 893-897]. Oxybenzone was detected in 97% of the all samples with mean concentration of 22.9 ng/ml and 95th percentile concentration of 1040 ng/ml. As the data indicates, the sunscreen agent occurrences are wide spread. […] 543 (2016) 28-36]. […] About nine times higher than previously reported levels of oxybenzone (up to 13000 ng/ml, average around 200 ng/ml) were found in urine samples collected in 2007-2009 from Californian females, which is probably a result of specific demographics [C. […]

COc1ccc(CN)cc1 [4-methoxy-benzylamine]
skin penetration in mice [1]: could not penetrate the skin of mice

Cc1ccc(C=C2C(=O)C3(C)CCC2C3(C)C)cc1 (stereo not drawn) [4-methylbenzylidene camphor]
maximum plasma concentration, females [2]: 20 ng/mL
mean urine concentration, females [2]: 5 ng/mL
maximum plasma concentration, males [2]: 20 ng/mL
mean urine concentration, males [2]: 7 ng/mL

CCCCC(CC)COC(=O)C=Cc1ccc(OC)cc1 (stereo not drawn) [octyl methoxycinnamate]
maximum plasma concentration, females [2]: 10 ng/mL
mean urine concentration, females [2]: 5 ng/mL
maximum plasma concentration, males [2]: 2 ng/mL
mean urine concentration, males [2]: 8 ng/mL

COc1ccc(C(=O)c2ccccc2)c(O)c1 [oxybenzone, 2-hydroxy-4-methoxybenzophenone]
maximum plasma concentration, females [2]: 200 ng/mL
mean urine concentration, females [2]: 60 ng/mL
maximum plasma concentration, males [2]: 300 ng/mL
mean urine concentration, males [2]: 140 ng/mL
correlation of maternal urinary levels with overall weight and head circumference of the baby [3]: positively correlated
95th percentile concentration in urine [4]: 1040 ng/mL
mean concentration in urine [4]: 22.9 ng/mL
share of urine samples in which detected [4]: 97%
average level in urine samples [5]: around 200 ng/ml
highest level in urine samples [5]: up to 13000 ng/ml
rank among urinary benzophenone-type UV filters in the study population [6]: most predominant
increase of average concentration in urine sample compared to 2003-2004 study [7]: more than 9 folds
